Assay results from patent US11149052B2, “2′3′-cyclic dinucleotides” (Institute of Organic Chemistry and Biochemistry, ASCR, V.V.I, priority 2018, dated 2021).

Assays:
[1] = target: T1, AQ STING (truncated human STING G230A-R293Q allelic form) (Homo sapiens, UniProt Q86WV6, G230A/H232R/R293Q); experiment: Differential Scanning Fluorimetry with AQ STING; type: binding; conditions: thermal shift vs apoprotein; 150 μM CDN; 0.1 mg/ml STING protein; SYPRO Orange; read-out: DSF ΔTm (° C.) AQ STING
T1 construct: truncated human WT STING or AQ STING (amino acid residues 140-343); 8xHis (N, cleaved yes); SUMO (N, cleaved yes); made in house; host or cells: E. coli Rosetta-gami B (DE3)
T1 sequence (Q86WV6 140-343 G230A/H232R/R293Q): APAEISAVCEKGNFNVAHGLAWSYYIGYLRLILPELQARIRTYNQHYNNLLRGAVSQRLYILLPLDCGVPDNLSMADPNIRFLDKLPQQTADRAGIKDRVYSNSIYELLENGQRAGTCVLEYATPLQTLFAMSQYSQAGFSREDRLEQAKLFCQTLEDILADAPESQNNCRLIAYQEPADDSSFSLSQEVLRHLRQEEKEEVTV
Protocol: (§1) Purified PCR products were cleaved with restriction enzymes BamHI (cat. #R0136S, NEB, Ipswich, USA) and NotI (cat. #R0189S, NEB, Ipswich, USA) and cloned into the pSUMO vector linearized with the identical enzymes.
(§2) DNase I (cat. #D5025, Sigma Aldrich, Czech Republic) and RNase A (cat. #R6513, Sigma Aldrich, Czech Republic) were added (final concentration […]) together with MgCl2 (final concentration 5 mmol·l^−1) to the homogenate and bacteria were lysed using French Press G-M™ High-Pressure Cell Press Homogenizer (1500 psi, 3 cycles). […] The resin was poured into a chromatography column, washed with 50 ml buffer A (50 mmol·l^−1 TrisCl (pH 8.0), 800 mmol·l^−1 NaCl, 3 mmol·l^−1β-mercaptoethanol; 10% glycerol; 20 mmol·l^−1 imidazole) and 8-His-SUMO tagged STING proteins were eluted with 15 ml buffer A containing 300 mmol·l^−1 imidazole. […] Proteins were concentrated with Amicon® Ultra-15 10 K device (cat. #UFC901008, Merck Millipore, Billerica, USA) and flash frozen in liquid N2.
(§3) Differential Scanning Fluorimetry with WT STING and AQ STING
(§4) 20 μL solutions of the reaction mixtures were pipetted in triplicates into 96 well optical reaction plates and thermal denaturation of samples were performed on real time PCR cycler (LightCycler® 480 Instrument II—Roche, Base^1, Switzerland). The first derivative of the thermal denaturation curves was performed to calculate denaturing temperatures of STING-CDN complexes and STING apoproteins. The thermal shift for each CDN was calculated by subtracting the average denaturing temperature of STING apoprotein from the average denaturing temperature of STING CDN complex.

[2] = target: human wild type STING (WT STING) (Homo sapiens, UniProt Q86WV6, H232R); experiment: Digitonin assay using 293T wtSTING-FL reporter cells (ISRE firefly luciferase reporter); type: cell-based; conditions: 293T wtSTING-FL cells; 30 min in Digitonin buffer, then 5 hours; luciferase read-out; 8-point dose-response curve; read-out: Digitonin assay EC50 (μmol · l^−1) WT STING
Sequence of human wild type STING (WT STING) (Q86WV6 whole entry H232R): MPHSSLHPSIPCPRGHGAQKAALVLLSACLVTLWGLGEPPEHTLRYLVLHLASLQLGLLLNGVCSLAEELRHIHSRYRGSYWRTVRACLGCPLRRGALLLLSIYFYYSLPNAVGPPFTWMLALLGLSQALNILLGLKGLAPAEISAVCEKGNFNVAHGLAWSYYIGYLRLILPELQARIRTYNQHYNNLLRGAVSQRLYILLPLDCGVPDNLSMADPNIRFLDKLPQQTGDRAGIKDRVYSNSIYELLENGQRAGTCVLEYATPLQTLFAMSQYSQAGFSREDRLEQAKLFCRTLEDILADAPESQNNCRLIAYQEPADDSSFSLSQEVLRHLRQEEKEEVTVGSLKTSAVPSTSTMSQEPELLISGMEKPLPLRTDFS
From the text: Two complementary oligonucleotides of the sequence […] […] […] […] […] The oligonucleotides were mixed in equal molar amounts, hybridized, and cleaved by restriction endonucleases HindIII (cat. #. R0104S, NEB, Ipswich, USA) and BglII (cat. #R0144S, NEB, Ipswich, USA). Ultimately, they were ligated into plasmid pGL4.27 (cat. #E6651, Promega, Madison, USA) linearized with the same enzymes. As result the sequence with four ISRE sites was placed upstream of the minimum promoter of firefly luciferase reporter gene.
After 5 minutes incubation at room temperature (RT), 250 μL of the mixture was added dropwise to the cells in one well.
Transfected cells were seeded onto poly-D-lysine coated six well plates at density 50,000 cells per 1 cm^2 in DMEM medium with high glucose containing 10% heat inactivated FBS, 30 μg/mL blasticidin (cat. #ant-bl-05, InvivoGen, San Diego, USA), 0.06 mg/ml Penicillin G and 0.1 mg/ml Streptomycin Sulfate (both cat. #. L0018, Biowest, Riverside, USA). The medium was replenished every 3-4 days until visible colonies of cells resistant to blasticidin were formed.
Blasticidin resistant cells stably expressing WT STING were further transfected with […] plasmid following the same procedure as described above. […] Homogeneous culture of stably double transfected cells was prepared by limiting dilution of cells in 96 well plates and wells with cells were selected that originated from a single cell.
The medium was removed next day and three fold serial dilutions of compounds in Digitonin buffer containing 50 mmol·l^−1 HEPES (cat. #H3375, Sigma Aldrich, Czech Republic) pH 7.0, 100 mmol·l^−1 KCl, 3 mmol·l^−1 MgCl2, 0.1 mmol·l^−1 DTT (cat. #D0632, Sigma Aldrich, Czech Republic), 85 mmol·l^−1 Sucrose (cat. #S7903, Sigma Aldrich, Czech Republic), 0.2% BSA (cat. #A2153, Sigma Aldrich, Czech Republic), 1 mmol·l^−1 ATP (cat. #A1852, Sigma Aldrich, Czech Republic), 0.1 mmol·l^−1 GTP (cat. #G8877, Sigma Aldrich, Czech Republic), and 10 μg/mL Digitonin A (cat. #D141, Sigma Aldrich, Czech Republic) were added to the cells. The buffer was removed after 30 minutes incubation at 37° C. with 5% CO2, the cells were washed once with 100 μl of cultivation medium, and 100 IA of medium was added to each well. The plates with cells were incubated for 5 hours at 37° C. with 5% CO2, 50 μl of the medium was removed and 30 μl of ONE-Glo™ Luciferase Assay System reagent (cat. #E6120, Promega, Madison, USA) was added to each well. Luminesce was read on Synergy H1 (Biotek, Winooski, USA).

[3] = target: T2, WT STING (truncated human WT STING protein) (Homo sapiens, UniProt Q86WV6, H232R); experiment: Differential Scanning Fluorimetry with WT STING; type: binding; conditions: thermal shift vs apoprotein; 150 μM CDN; 0.1 mg/ml STING protein; SYPRO Orange; read-out: DSF ΔTm (° C.) WT STING
T2 construct: truncated human WT STING or AQ STING (amino acid residues 140-343); 8xHis (N, cleaved yes); SUMO (N, cleaved yes); made in house; host or cells: E. coli Rosetta-gami B (DE3)
T2 sequence (Q86WV6 140-343 H232R): as the sequence (Q86WV6 140-343 G230A/H232R/R293Q) above, with A91G, Q154R counted along it
Protocol: as §1, §2, §3, §4

Structure (SMILES)	ΔTm at 150 µM [1] [°C]	EC50 [2] [nM]	ΔTm at 150 µM [3] [°C]
Nc1nc2c(ncn2[C@@H]2O[C@@H]3COP(=O)(O)CO[C@@H]4[C@H](O)[C@@H](COP(=O)(O)O[C@H]3[C@H]2O)O[C@H]4n2cnc3c(N)ncnc32)c(=O)[nH]1 [Example 6, (1R,6S,7R,8R,10R,16R,17R,19R)-8-(2-amino-6-oxo-6,9-dihydro-1H-purin-9-yl)-17-(6-amino-9H-purin-9-yl)-4,7,13,19-tetrahydroxy-3,5,9,12,15,18-hexaoxa-4λ^5,13λ^5-diphosphatricyclo[14.2.1.0^6,^10]nonadecane-4,13-dione]	1.2	> 50000	0.1
Nc1nc2c(ncn2[C@@H]2O[C@@H]3COP(=O)(O)CO[C@H]4[C@@H](F)[C@H](n5cnc6c(N)ncnc65)O[C@@H]4COP(=O)(O)O[C@@H]2[C@@H]3F)c(=O)[nH]1 [Example 17, (1S,6R,8R,9R,10R,16R,18R,19R)-18-(2-amino-6-oxo-6,9-dihydro-1H-purin-9-yl)-8-(6-amino-9H-purin-9-yl)-9,19-difluoro-3,13-dihydroxy-2,4,7,11,14,17-hexaoxa-3λ^5,13λ^5-diphosphatricyclo[14.2.1.0^6,^10]nonadecane-3,13-dione]	27.3	20	21.7
Nc1nc2c(ncn2[C@@H]2O[C@@H]3COP(=O)(O)CO[C@H]4[C@@H](O)[C@H](n5cnc6c(N)ncnc65)O[C@@H]4COP(=O)(O)O[C@@H]2C3)c(=O)[nH]1 [Example 21, (1R,6R,8R,9R,10S,16S,18R)-18-(2-amino-6-oxo-6,9-dihydro-1H-purin-9-yl)-8-(6-amino-9H-purin-9-yl)-3,9,13-trihydroxy-2,4,7,11,14,17-hexaoxa-3λ^5,13λ^5-diphosphatricyclo[14.2.1.0^6,^10]nonadecane-3,13-dione]	21	6	14.2
Nc1ncnc2c1ncn2[C@@H]1O[C@@H]2COP(=O)(O)CO[C@@H]3[C@H](O)[C@@H](COP(=O)(O)O[C@H]2[C@H]1O)O[C@H]3n1cnc2c(N)ncnc21 [Example 23, (1R,6S,7R,8R,10R,16R,17R,19R)-8,17-bis(6-amino-9H-purin-9-yl)-4,7,13,19-tetrahydroxy-3,5,9,12,15,18-hexaoxa-4λ^5,13λ^5-diphosphatricyclo[14.2.1.0^6,^10]nonadecane-4,13-dione]	3.4	5900	0.2
Nc1nc2c(ncn2[C@@H]2O[C@@H]3COP(=O)(O)O[C@H]4[C@@H](O)[C@H](n5cnc6c(N)ncnc65)O[C@@H]4COP(=O)(O)CO[C@@H]2[C@@H]3O)c(=O)[nH]1 [Example 3, (1R,6S,7R,8R,10R,16R,17R,19R)-17-(2-amino-6-oxo-6,9-dihydro-1H-purin-9-yl)-8-(6-amino-9H-purin-9-yl)-4,7,13,19-tetrahydroxy-3,5,9,12,15,18-hexaoxa-4λ^5,13λ^5-diphosphatricyclo[14.2.1.0^6,^10]nonadecane-4,13-dione]	7.2	3000	0.8
Nc1nc2c(ncn2[C@@H]2O[C@@H]3COP(=O)(O)CO[C@H]4[C@@H](F)[C@H](n5cnc6c(N)ncnc65)O[C@@H]4COP(=O)(O)O[C@@H]2C3)c(=O)[nH]1 [Example 18, (1R,6R,8R,9R,10R,16S,18R)-18-(2-amino-6-oxo-6,9-dihydro-1H-purin-9-yl)-8-(6-amino-9H-purin-9-yl)-9-fluoro-3,13-dihydroxy-2,4,7,11,14,17-hexaoxa-3λ^5,13λ^5-diphosphatricyclo[14.2.1.0^6,^10]nonadecane-3,13-dione]	23.9	20	19
